Consider three molecules from article PMC10069031 (European Journal of Medical Research, 2023).

By IC50 is commonly meant the concentration at which inhibition is half-maximal.

Like-named read-outs stand apart in the source and are kept apart here.

One data set deals with T1, murine CSF1R (Mus musculus, UniProt P09581).
T1 construct: Western blot analysis of total lysates (40 µg/lane) from mouse RAW264.7 cells treated as indicated; endogenous in cells; host or cells: RAW264.7 (murine macrophages)
T1 sequence (P09581 20-977): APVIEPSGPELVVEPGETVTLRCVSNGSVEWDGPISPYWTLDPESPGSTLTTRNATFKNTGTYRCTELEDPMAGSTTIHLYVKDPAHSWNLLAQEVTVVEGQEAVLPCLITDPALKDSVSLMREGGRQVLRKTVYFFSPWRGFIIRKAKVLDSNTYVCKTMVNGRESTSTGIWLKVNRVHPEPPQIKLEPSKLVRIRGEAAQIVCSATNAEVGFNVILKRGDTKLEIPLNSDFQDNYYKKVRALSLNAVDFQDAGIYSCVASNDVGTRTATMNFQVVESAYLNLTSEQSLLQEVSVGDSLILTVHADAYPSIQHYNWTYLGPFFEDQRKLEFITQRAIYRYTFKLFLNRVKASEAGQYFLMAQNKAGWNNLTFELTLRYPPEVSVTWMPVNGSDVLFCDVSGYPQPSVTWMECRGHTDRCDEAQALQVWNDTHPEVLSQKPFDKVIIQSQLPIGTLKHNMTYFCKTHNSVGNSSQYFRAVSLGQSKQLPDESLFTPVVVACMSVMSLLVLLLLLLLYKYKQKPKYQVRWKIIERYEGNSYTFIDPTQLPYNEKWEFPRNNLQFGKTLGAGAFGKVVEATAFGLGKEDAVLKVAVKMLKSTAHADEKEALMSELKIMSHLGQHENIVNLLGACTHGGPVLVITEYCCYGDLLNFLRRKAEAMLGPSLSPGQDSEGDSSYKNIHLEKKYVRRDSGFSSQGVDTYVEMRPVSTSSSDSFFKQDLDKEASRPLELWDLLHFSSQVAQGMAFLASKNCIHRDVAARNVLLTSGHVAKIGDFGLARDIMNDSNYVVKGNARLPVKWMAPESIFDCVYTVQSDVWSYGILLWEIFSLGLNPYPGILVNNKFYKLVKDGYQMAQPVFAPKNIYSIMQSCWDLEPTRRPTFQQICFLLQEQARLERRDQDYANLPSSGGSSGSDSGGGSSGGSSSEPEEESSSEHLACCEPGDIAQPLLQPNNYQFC
Briefly: CSF1R inhibition in RAW264.7 cells (western blot of pCSF1R). Format: cell-based. The conditions noted are these: RAW264.7 cells; for IC50: drug 1 h, CSF1 100 ng/mL 2 min, mean ± SD (replicates), M-4, M-5 from pCSF1R bands without relating to total CSF1R; for signal of total CSF1R: western blot. Here is the method: (§1) RAW264.7 cells (10^6) were seeded into cell culture dishes 6 cm in diameter and incubated in 4 mL RPMI/10% fetal bovine serum (Biochrom) for 24 h at 37 °C in a humidified 5% CO2 atmosphere. Cells were washed once with phosphate-buffered saline (PBS) and starved in 3 mL RPMI/0.1% bovine serum albumin for another 24 h. Cells were then treated for 1 h at 37 °C with drugs at the indicated final concentrations, with 0.5% DMSO as vehicle control, or left untreated, and finally stimulated for 2 min at 37 °C with 100 ng/mL recombinant mouse CSF1 (R&D Systems) by adding 1 mL prewarmed starving medium containing 400 ng/mL CSF1. Dishes were placed on ice and cells were immediately washed with ice-cold PBS and lysed with 50 µL lysis buffer (50 mM HEPES pH 7.5, 150 mM NaCl, 1.5 mM MgCl2, 10% glycerol, 1% Triton X-100, 0.5% desoxycholate, 0.2% sodium dodecyl sulfate, 1 mM ethylene glycol-bis[β-aminoethyl ether]-N,N,N′,N′-tetraacetic acid, 100 mM NaF, 10 mM Na4P2O7, 1 mM Na3VO4, 1% Phosphatase Inhibitor Cocktail 3 [Sigma-Aldrich], 1 mM phenylmethyl sulfonyl fluoride, Complete Protease Inhibitor Cocktail [Roche CustomBiotech; 1 tablet/10 mL], and 50 U/mL Benzonase [Sigma-Aldrich]). Lysed cells were scraped into Eppendorf tubes, incubated on ice for 20 min, and centrifuged at 4 °C for 10 min at 13,000 rpm; supernatants (lysates) were transferred into new tubes and stored at −80 °C.
(§2) Protein concentrations were determined using Pierce bicinchoninic acid assay (Thermo Fisher Scientific) and 40 µg/lane of total lysate was separated by SDS-PAGE on 4–12% Criterion XT Bis–Tris Gels (Bio-Rad) and subsequently transferred to polyvinylidene difluoride membranes using the Trans Blot Turbo Blotting System (Bio-Rad). For antigen detection, membranes were blocked with PBS Odyssey blocking reagent (LI-COR Biosciences) for 1 h at room temperature (RT). Primary antibodies were incubated overnight at 4 °C and the fluorescent secondary antibodies were incubated for 1 h at RT. After each antibody incubation, blots were washed with PBS with 0.05% Tween 20 (Carl Roth) for 15–30 min at RT. Fluorescent signals were quantitatively captured using the Odyssey DLx Infrared Imaging System (LI-COR Biosciences) and the half-maximal inhibitory concentration (IC50) values were calculated using GraphPad software (version 7 or newer).

For the next data set, the system named is ERK1/2. As to the kind of experiment: Inhibition of ERK activation in CSF1-stimulated RAW264.7 cells (western blot). Particulars: mean ± SD (replicates), read-out: Mean kinase IC50 values: P(T185,202;Y187,204) ERK1/2 [WB]. Format: cell-based, mouse. Here is the method:
as §1, §2

In another data set the test system is AKT. As to the kind of experiment: Inhibition of AKT activation in CSF1-stimulated RAW264.7 cells (western blot). The class given is cell-based, mouse. The conditions noted are these: mean ± SD (replicates), read-out: Mean kinase IC50 values: P(S473)AKT [WB]. Here is the method: as §1, §2
(Immunoblotting shows a protein as a band on a membrane.)

A further data set concerns the target VEGFR2 (Homo sapiens, UniProt P35968). Briefly: Competition binding assay, reference kinase.
The next data set is described as follows: Binding to mouse plasma. Format: in vitro ADME.
The mark [1] stands for this setting: read-out: Mean kinase IC50 values: P(Y559)CSF1R [WB].
Setting [2] is: read-out: Mean kinase IC50 values: P(Y721)CSF1R [WB].

Sequence of VEGFR2 (P35968 20-1356, species assumed): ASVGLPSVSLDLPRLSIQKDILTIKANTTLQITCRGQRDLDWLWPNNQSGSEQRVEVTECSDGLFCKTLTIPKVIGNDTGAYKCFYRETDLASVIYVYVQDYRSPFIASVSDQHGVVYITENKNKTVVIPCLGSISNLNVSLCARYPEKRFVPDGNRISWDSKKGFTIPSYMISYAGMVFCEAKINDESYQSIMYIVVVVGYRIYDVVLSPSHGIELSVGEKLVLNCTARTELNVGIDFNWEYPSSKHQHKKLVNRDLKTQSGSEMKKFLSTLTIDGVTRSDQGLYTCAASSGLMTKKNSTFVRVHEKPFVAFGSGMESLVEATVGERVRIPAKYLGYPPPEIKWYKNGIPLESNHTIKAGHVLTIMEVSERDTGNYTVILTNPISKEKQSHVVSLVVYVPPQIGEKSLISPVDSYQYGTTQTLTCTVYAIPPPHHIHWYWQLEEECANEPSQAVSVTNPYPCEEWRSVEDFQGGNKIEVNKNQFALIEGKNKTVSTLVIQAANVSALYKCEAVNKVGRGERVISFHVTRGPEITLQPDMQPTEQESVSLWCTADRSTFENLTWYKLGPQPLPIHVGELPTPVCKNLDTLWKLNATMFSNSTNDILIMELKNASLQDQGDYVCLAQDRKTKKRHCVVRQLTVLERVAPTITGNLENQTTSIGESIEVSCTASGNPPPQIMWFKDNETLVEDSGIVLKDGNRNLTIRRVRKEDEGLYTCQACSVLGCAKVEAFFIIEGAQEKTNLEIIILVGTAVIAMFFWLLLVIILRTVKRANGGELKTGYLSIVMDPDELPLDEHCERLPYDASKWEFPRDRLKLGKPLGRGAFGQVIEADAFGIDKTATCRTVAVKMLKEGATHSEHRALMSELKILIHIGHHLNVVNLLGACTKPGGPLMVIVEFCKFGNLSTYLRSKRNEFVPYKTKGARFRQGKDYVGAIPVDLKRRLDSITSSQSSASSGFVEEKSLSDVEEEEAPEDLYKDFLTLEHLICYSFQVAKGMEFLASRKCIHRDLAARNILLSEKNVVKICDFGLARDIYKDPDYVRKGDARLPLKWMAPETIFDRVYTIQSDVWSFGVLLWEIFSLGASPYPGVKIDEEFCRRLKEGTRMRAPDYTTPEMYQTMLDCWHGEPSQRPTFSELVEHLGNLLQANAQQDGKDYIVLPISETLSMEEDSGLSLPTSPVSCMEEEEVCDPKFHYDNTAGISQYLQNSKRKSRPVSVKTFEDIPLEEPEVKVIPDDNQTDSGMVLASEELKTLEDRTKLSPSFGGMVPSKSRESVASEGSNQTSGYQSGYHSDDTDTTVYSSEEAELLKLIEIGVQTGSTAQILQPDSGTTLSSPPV

Turning to `CNC(=O)c1cc(Oc2ccc(NC(=O)Nc3ccc(Cl)c(C(F)(F)F)c3)c(F)c2)cc[n+]1[O-]` [M-2], the IC50 on murine CSF1R (setting [1]) worked out at 66 ± 17 nM; at murine CSF1R (setting [2]), 18 ± 7 nM; in the data set with ERK1/2, 239 ± 239 nM; in the data set on AKT it was 63 ± 37 nM.
As to `NC(=O)c1cc(Oc2ccc(NC(=O)Nc3ccc(Cl)c(C(F)(F)F)c3)c(F)c2)cc[n+]1[O-]` [M-5], the IC50 at murine CSF1R (setting [1]) is 19 ± 15 nM; on murine CSF1R (setting [2]), 18 ± 14 nM; with ERK1/2 it was 276 ± 197 nM; with AKT, 93 ± 110 nM. The “signal of total CSF1R” value at murine CSF1R is reported as “destabilized”.
On to `NC(=O)c1cc(Oc2ccc(NC(=O)Nc3ccc(Cl)c(C(F)(F)F)c3)c(F)c2)ccn1` [M-4], for which the IC50 on murine CSF1R (setting [1]) was 273 ± 101 nM; on murine CSF1R (setting [2]) it was 185 ± 29 nM; with ERK1/2, 783 ± 34 nM; in the data set on AKT, 276 ± 30 nM; at VEGFR2, 37 nM. On murine CSF1R, the “signal of total CSF1R” value is given as “destabilized”. In addition, the unbound fraction in “Binding to mouse plasma” was found to be 0.332%.
